Results from US20260174766A1, “COMBINATION OF MENIN INHIBITOR(S) AND IMMUNOPROTEASOME INHIBITOR(S) FOR TREATMENT OF LEUKEMIA” (Medizinische Hochschule Hannover, priority 2022, published 2026).

Columns and labels:
[1] = test system: MLLr cell lines; test: Cell growth (cell counting after trypan blue exclusion) of MLLr cell lines; format: cell-based, human; settings: 50 nM or 100 nM PR-957, 96 hours, vs DMSO; FIG. 1G left
Description: (§1) MOLM-13, MONO-MAC-6, THP-1, KOPN-8, ML-2, MV-4;11, OCI-AML3, U-937, KASUMI-1, K-562, HL-60 and LAMA-84 cells were purchased from DSMZ (Braunschweig, Germany). Cas9-Blast cell lines are subclones of the respective cell lines and stably transduced with lentiCas9-Blast (Addgene plasmid #52962). Cells were cultured in RPMI 1640 medium (Thermo Fisher Scientific, Waltham, MA, USA) supplemented with 10-20% FBS (Thermo Fisher Scientific) in a humid atmosphere of 5% CO2 at 37° C. MV4;11 cells harboring Menin-inhibitor resistance mediating mutations of Menin were generated by CRISPR-Cas9 technology.
(§2) Cellular proliferation was assessed by cell counting after trypan blue exclusion. Apoptosis of cells was measured by flow cytometry using Annexin V/SYTOX® Blue staining following the manufacturer's instruction.

[2] = test system: non-MLLr cell lines; test: Cell growth (cell counting after trypan blue exclusion) of non-MLLr cell lines; format: cell-based, human; settings: 50 nM or 100 nM PR-957, 96 hours, vs DMSO; FIG. 1G right
Description: as §1, §2

[3] = test system: MLLr leukemic cells (MLL-AF9 and MLL-AF4 PDX); test: Patient derived xenografts (MLL-AF9, MLL-AF4) in NSGW41 mice treated with PR-957; format: in vivo, mouse
From the text: NOD.Cg-Prkdc^scid Il2rg^tm1Wjl Tg(CMV-IL3, CSF2, KITLG) 1Eav/MloySzJ (NSGS), NOD.Cg-Prkdc^scid Il2rg^tm1Wjl/SzJ (NSG) or NOD.Cg-Prkdc^scid Il2rg^tm1Wjl/RJ (NXG) were obtained from The Jackson Laboratory (Bar Harbor, ME, USA). 8-12-weeks old adult mice (male and female) were irradiated with 2 Gy (single dose) before transplantation. 1×10^5 MOLM-13, ML-2 or MV-4; 11 cells transduced with either of two PSMB8/LMP7 shRNAs or non-targeting control; with a pLEX vector containing the sequence of BASP1 or an empty vector; or treated ex vivo with the indicated inhibitors were injected intravenously via the tail vein. For patient derived xenograft experiments (PDX) of human MLLr leukemia we used an improved model for human HSC transplantation and analysis, that has been developed from immune-deficient mouse strains containing Kit mutations: NOD.Cg-^KitW-41J Prkdc^scid Il2rg^tm1Wjl/WaskJ (NSGW41) (Cosgun et al., 2014). These mice can be engrafted without prior conditioning and therefore maintain an intact niche and microenvironment. Human myeloid engraftment (hCD45+ CD13+) was analyzed by flow cytometry.
In order to assess for the functional relevance of immunoproteasome component LMP7/PSMB8 in human AML, genetic inactivation of LMP7/PSMB8 by RNAi was performed with two independent shRNAs against LMP7/PSMB8 (shPSMB8-3 and shPSMB8-2) compared to non-targeting control (shNT) in MLLr cell lines. […] However, induction of apoptosis could only be detected in less than 40% of cells with no significant variability between MLLr cell lines and the individual shRNAs. Efficient LMP7/PSMB8 depletion was confirmed by Western blotting (FIG. 1E). […] Following xenotransplantation, the relative abundance of human AML cells in the murine peripheral blood was measured over time by flow cytometry, and PR-957 treatment was initiated once hCD45+ AML cells constituted 0.1%-0.5% of PB cells. […]

[4] = test system: MLL-rearranged murine leukemic cells; test: Methylcellulose colony-forming assay, MLL-rearranged murine leukemic cells; format: cell-based, mouse
Description: Primary mouse bone marrow (BM) cells (transduced with MLL-AF9/KRAS, MLL-AF6, or AML1-ETO/KRAS) were seeded in MethoCult GF M3434 (StemCell Technologies) at a concentration of 1×10^3 cells/replicate. Colonies propagated in culture were scored at day 8. For re-plating of primary mouse BM cells, colonies were harvested from the methylcellulose medium, washed with PBS/1% FBS and seeded again at a concentration of 1×10^3 cells/replicate. MOLM-13 or ML-2 cells infected with either control or PSMB8/LMP7-specific shRNAs were plated at a concentration of 1×10^3 cells in MethoCult H4230 (StemCell Technologies) supplemented with 20% FBS and colony numbers were counted on day 10-14.

[5] = test system: normal hematopoietic cells; test: Normal hematopoiesis: competitive transplantation after in vivo PR-957 treatment; parameters: species or system mouse
[6] = test system: Menin-inhibitor resistant cell lines (MV-4;11 M327I, T349M); test: Relative growth of Menin-inhibitor resistant MV-4;11 cell lines; format: cell-based, human; settings: resistance mutations M327I and T349M; 50 nM or 100 nM PR-957; FIG. 4L
Description: as §1

SMILES: COc1ccc(C[C@H](NC(=O)[C@H](C)NC(=O)CN2CCOCC2)C(=O)N[C@@H](Cc2ccccc2)C(=O)[C@]2(C)CO2)cc1 [PR-957, (2S)-3-(4-methoxyphenyl)-N-[(2S)-1-[(2S)-2-methyloxiran-2-yl]-1-oxo-3-phenylpropan-2-yl]-2-[[(2S)-2-[(2-morpholin-4-ylacetyl)amino]propanoyl]amino]propanamide]
- cell growth in MLLr cell lines [1]: dose-dependent and specific reduction of cell growth
- cell growth in non-MLLr cell lines [2]: largely unaffected
- antileukemic activity in PDX models ([3]; 3 mg/KG i.v. 5 consecutive days, every 2 weeks, escalated to 6 and 10 mg/KG, NSGW41 mice): potent antileukemic activity
- cell morphology of AML cells (cytospin analysis) ([3]; PDX after onset of AML, FIG. 1K): signs of cellular differentiation
- survival and disease penetrance in PDX ([3]; over a period of 100 days, FIG. 1J): improved survival and reduced disease penetrance
- colony size and shape ([4]; MLL-AF9 transformed leukemia): reduction of colony size and changes in colony shape
- clonogenic potential (colony counts) ([4]; nanomolar concentrations (100 nM or 200 nM), serial replating, FIG. 2A): profound dose dependent reduction of clonogenic potential
- hematopoietic stem- and progenitor cell abundance ([5]; PR-957 for 3 weeks (10 mg/kg, 5 days/week), FIGS. 2K,L,M): did not show any changes
- stem- and progenitor cell chimerism in secondary recipients ([5]; previous PR-957 treatment, FIGS. 2O,P,Q): not affected
- peripheral blood chimerism in secondary recipient mice ([5]; until week 16, FIG. 2N): no changes
- sensitivity of Menin-inhibitor resistant cell lines to immunoproteasome inhibition [6]: preserved sensitivity
